We go through 111 molecules from a melting point compilation (Tetko et al.).

Bounds are passed on as bounds.

`CC(C(=O)O)C(O)(c1ccccc1)c1ccccc1` (stereo unspecified) showed a melting point of 182 °C. Under `C#CC1(O)CC[C@@]2(C)C(CC[C@@H]3[C@@H]2CC[C@@]2(C)[C@H]3CC[C@]2(O)C#C)C1` (stereo partly specified) stands 147 °C. To `OCc1ccc(-c2cncnc2)cc1` belongs 127 to 130 °C; to `CCOC(=O)CCC(C)C1CCC2C3C=CC4CC(OC(C)=O)CCC4(C)C3CC(OC(C)=O)C12C` (stereo unspecified), 83 to 84 °C. To `CC12CCC(CC1)C2(C)C` belongs 158 °C; to `O=[N+]([O-])c1ccc(I)c(Cl)c1`, 99 °C.

`O=Cc1ccc(CN2CCOCC2)cc1` returned a melting point of 53 to 56 °C. To `O=C(CO)c1ccc(Br)cc1` belongs 137 to 142 °C; to `O=C(CCl)c1cccc(C(=O)CCl)c1`, 90 °C. Under `CCOC(=O)c1cc2cccnc2s1` stands 59 to 60 °C; under `CCCCCCCCCCS`, -26 °C; under `O=[N+]([O-])c1ccccc1-c1nc(-c2ccccc2)c(-c2ccccc2)[nH]1`, 235 to 238 °C. To `CCCCC(=O)c1ccc(N)cc1` belongs 74.5 °C; to `CN1CCOc2cc(S(=O)(=O)Cl)cnc21`, 130 to 132 °C; to `CC(CC(=O)OOC(C)(C)C)CC(C)(C)C` (stereo unspecified), -30 °C. `O=C(O)COc1ccc(Br)cc1` had a melting point of 156 to 161 °C. Under `CC(C)=CCCC(C)C1=C(O)C(=O)C(C)=CC1=O` (stereo unspecified) stands 104 °C. Under `CCC1(O)CCC2C3CCC4=CC(=O)CCC4C3CCC21C` (stereo unspecified) stands 140 °C; under `CC(C)N1C(=O)c2ccccc2NS1(=O)=O`, 140 °C. Under `N#Cc1cnc(N2CCCCC2)nc1N` stands 220 to 222 °C.

In the case of `Cc1noc(-c2ccccc2CO)n1`, the melting point fell in the range of 91 to 92 °C.

Regarding `O=Cc1cccc(OCc2ccccc2)c1`, the melting point stood at 56 °C. In the case of `Cc1cc(C(C)(C)C)ccc1O`, the melting point came to 27.5 °C. Under `CCOC(=O)Nc1ccc2cc3ccc4c(c3nc2c1)COC(=O)N4` stands 235 °C. Molecule `CC(=O)NCCN` registered a melting point of 47 °C. `Oc1nnc(C2c3ccccc3Oc3ccccc32)o1` gave a melting point of 335 to 337 °C.

Molecule `Nc1ccc(SCC(=O)O)cc1` showed a melting point of 193 to 203 °C. Under `Cc1cccc(Cn2nc(C(C)(C)C)cc2-c2nnc(S)o2)c1` stands 129 to 131 °C; under `CCCC(=O)OC`, -84.5 °C. Under `O=C1CCCN1CCO` stands 20 °C; under `COC(=O)C=C(C)OP(=O)(OC)OC`, 21 °C. To `COc1ccc(C=C2C(=O)OC(C)(C)OC2=O)cc1OC` belongs 164 °C; to `O=Cc1ccc2c(c1)C(=O)c1c(Cl)c(Cl)c(Cl)c(Cl)c1C2=O`, 183 °C; to `CN(N=O)c1ccccc1`, 14.7 °C.

In turn, `O=[N+]([O-])c1ccc(Cl)cc1Nc1ccccc1` registered a melting point of 110 to 114 °C. Under `Cn1c(Cl)cc(=O)n(C)c1=O` stands 110 °C; under `CCOc1c(Nc2ccc(C(=O)O)cc2)c(=O)c1=O`, 300 °C; under `CC(Oc1ccc(Cl)cc1Cl)C(=O)Nc1ccc2nc(SCc3ccccc3)sc2c1` (stereo unspecified), 169 °C.

As for `COc1ccc(C(=O)O)cc1C`, the melting point is 195 to 197 °C. Under `CC1(c2ccccc2)CC(C(=NOCC2CO2)c2cc3ccccc3o2)C1` (stereo unspecified) stands 159 to 160 °C; under `COC(=O)CC(C)=O`, 27.5 °C; under `C#CC1(O)CCC2(C)C3CCC4(C)C(=O)CCC4C3CCC2(C)C1` (stereo unspecified), 238 °C. To `O=c1c(Cl)c(Cl)cnn1-c1ccc(F)c(Cl)c1` belongs 201 to 203 °C; to `CCOC(=O)c1[nH]c(C)c(C=O)c1C`, 145 to 146 °C; to `Nc1cc(C(F)(F)F)cc(Cl)c1N`, 42 to 43 °C. To `CN1C(=C(O)Nc2ccccn2)C(=O)c2sccc2S1(=O)=O` belongs 211 °C; to `O=C(OC(Cl)(Cl)Cl)C(Cl)(Cl)Cl`, 34 °C. The molecule `O=C(C1=NOC2C(=O)N(c3ccc(Cl)cc3)C(=O)C12)c1ccco1` (stereo unspecified) came in with a melting point of 171 °C.

The molecule `C=C(C)[C@H]1CC=C(C)C(=O)C1` had a melting point of 89 °C.

In turn, `O=CC(=O)O` had a melting point of 98 °C. Under `NC(=O)NNc1ccccc1` stands 174 to 176 °C.

The molecule `c1ccc(-c2nnc(NC3=NCCN3)s2)cc1` displayed a melting point of 192 to 194 °C. To `O=Cc1cccn1-c1ccc([N+](=O)[O-])cc1` belongs 166 to 169 °C; to `CC(CCC(=O)O)C1CCC2C3C(=O)CC4CCCCC4(C)C3CCC12C` (stereo unspecified), 145 °C; to `NC(CS(=O)(=O)c1ccc(F)cc1)=NO`, 180 to 183 °C.

As to `Oc1ccc2c3c1OC1C(O)C=CC4C(C2)NCCC341` (stereo unspecified), the melting point was determined as 273 °C.

For the molecule `Clc1ccc(OCc2ccccc2)cc1`, the melting point was in the range of 70 to 72 °C. For `CC1(C)OC(CO)C(CO)O1` (single isomer, unassigned; (+)), the melting point was in the range of 47 to 51 °C. Under `CC1CCCCN1CCCOC(=O)c1ccc(Cl)c(Cl)c1` (stereo unspecified) stands 25 °C. To `CC(=O)OCC#CCOC(C)=O` belongs 28 °C; to `CCCCCCCC(=O)CCCCCCC`, 43 °C; to `O=C1c2ccccc2C(=O)c2cc3ccccc3cc21`, 291 °C. Under `OCc1cc(C(F)(F)F)ccc1Cl` stands 59 °C; under `O=Cc1ccc(O)c(F)c1`, 123 °C. `O=C(c1ccccc1)c1noc(-c2ccc3ccccc3c2)c1S(=O)(=O)c1ccccc1` yielded a melting point of 178 °C.

`O=C(Cl)c1cnn(-c2ccc([N+](=O)[O-])cc2)c1C(F)(F)F` had a melting point of 77 to 79 °C.

Regarding `CC(=O)C1=C(C)NC(=O)NC1c1ccccc1` (stereo unspecified), the melting point was 238 °C. The molecule `C=CCC1=C(OC(C)=O)C2=CC=C3C(C)=C(C)C(=O)CC3(C)C2=C(O)C1=O` (stereo unspecified) displayed a melting point of 93 °C. Under `CCOC(=O)c1nnn2c1nc(S)c1ccccc12` stands 171 to 172 °C; under `FC(F)(Cl)C(F)(F)Cl`, -94 °C.

With `CN(C)CC(O)Cn1c2ccc(Br)cc2c2cc(Br)ccc21` (stereo unspecified), the melting point lay within 153 to 154 °C. Take `CCOC(=O)C(C)=O`: the melting point is -50 °C. To `O=C(O)C=CCCCCCCCCC(=O)O` belongs 166 °C; to `Nc1c(Br)cc(F)cc1Br`, 65 °C; to `Cc1cc(-c2ccccc2)n[nH]1`, 127 to 128 °C. In turn, `NNC(=O)c1ccc(-c2ccccc2)cc1` yielded a melting point of 194 °C. Under `O=C(O)COc1c(Cl)ccc(Cl)c1Cl` stands 148 °C; under `CNC(=O)Oc1ccc2c(c1)C1(C)CCN(C)C1N2C` (stereo unspecified), 106 °C.

With `Nc1ccc(-c2ccc(N)c(Cl)c2)cc1Cl`, the melting point worked out at 132 °C.

Molecule `Cc1ccccc1N(C)C` gave a melting point of -60 °C. To `FC(F)(F)CCl` belongs -106 °C; to `CSc1nc2cc(N=Cc3ccc(F)cc3)ccc2[nH]1`, 174 to 175 °C; to `CC(=O)Nc1cccc(C=CC(=O)c2ccccc2)c1`, 104 °C. Under `O=C(Nc1c(Cl)cc(Cl)cc1Cl)C(C(F)(F)F)C(F)(F)F` stands 218 to 220 °C.

In turn, `C=CCn1c(S)nnc1-c1ccc2ncccc2c1` yielded a melting point of 211 to 214 °C. To `Clc1ccc(-n2cccc2)cc1` belongs 88 to 91 °C; to `Cc1cccc(C(C)(C)C)c1O`, 31 °C; to `CCOC(=O)c1cc(C)on1`, 29 °C. Under `CC1CCC(C(C)C)C(OC(=O)c2ccc3ccccc3c2)C1` (stereo unspecified) stands 76 °C; under `CCOc1ccc(NC(=O)C(F)(F)C(F)(F)C(F)(F)C(F)(F)C(F)(F)C(F)(F)C(F)(F)C(F)(F)F)cc1`, 135 °C; under `OCc1ccc(-n2cncn2)cc1`, 124 to 125 °C. `O=C1CCC(=O)N1CN1C(=O)C(=Cc2ccco2)SC1=S` gave a melting point of 166 °C. Under `CNC(=C[N+](=O)[O-])NCCSCc1csc(CN(C)C)n1` stands 203 °C. For the molecule `NC(=O)C1=CNCCC1C(F)(F)F` (stereo unspecified), the melting point is 184 to 187 °C. To `Cc1c(C=NO)c(=O)n(-c2ccccc2)n1C` belongs 216 to 219 °C; to `CCCN(CCOc1c(Cl)cc(Cl)cc1Cl)C(=O)n1ccnc1`, 48.3 °C; to `Cc1csc2ccc(Cl)cc12`, 35 °C. Under `CC1(C)OC(=O)C(=NNc2ccc(C(=O)O)cc2)C(=O)O1` stands 223 °C; under `CC12CCC(O)CC1CCC1C2CCC2(C)C(C3=CC(=O)OC3)C(O)CC12O` (stereo unspecified), 234 °C.

Molecule `Oc1ccc(Nc2ccc(O)cc2)cc1` returned a melting point of 174 °C. To `CN(C)CCN(C)C` belongs -55 °C; to `CCCCCCCCCCCCN1c2ccccc2C(C)(C)C12C=Cc1cc([N+](=O)[O-])ccc1O2` (stereo unspecified), 109 °C; to `CN(CC=CC#CC(C)(C)C)Cc1cccc2ccccc12`, 196 °C. Consider `O=C(O)c1cc(I)ccc1Br`, for which the melting point came to 175 °C.

`COC1CC1` returned a melting point of -119 °C. To `CCOc1cc(OP(=S)(OC)OC)nc(CC)n1` belongs -3.35 °C.

Turning to `CCCCCC(C)(C)C`, the melting point was -113 °C. Under `Cc1nc2ccccn2c1C(=O)O` stands 140 to 142 °C.

In the case of `CCCF`, the melting point is -159 °C. To `O=[N+]([O-])c1cnc(NC2=NCCN2)s1` belongs over 250 °C; to `O=[N+]([O-])c1cccc2cc[nH]c12`, 95 to 98 °C.
